This is an account of results in EP3820845B1, “NOVEL, NEW GENERATION INHIBITOR COMPOUNDS SPECIFIC TO GST P1 ENZYME” (HACETTEPE ÜNIVERSITESI, priority 2018, dated 2020).

Where two headings read alike, the source gives them in different places.

One test deals with GST P1 (Homo sapiens, UniProt P09211). The experiment in a line: Enzyme kinetic analysis with GST P1 (GSH- and CDNB-dependent Michaelis-Menten / Lineweaver-Burk), Ki inhibition constants. As to conditions: Figure 2. It counts as biochemical. As for the experimental part:
Figure 1. IC50 dose(Log)-inhibition graph of the spectrophotometric enzyme activity of GST P1 at concentrations of the ctapm1 compound between 0-100 µM. Figure 2. kinetic analysis results of ctapm1 compound with GST P1. A and C are the GSH and CDNB dependent Michaelis-Menten graphic of the ctapm1 compound and B and D are the GSH and CDNB dependent Lineweaver-Burk graphs of the ctapm1 compound. Figure 3. The schematic view of the THC fragment, its load distribution and elemental features. 2-dimension schematic view (a) of "2,3,4,9-tetrahydro-1H-carbazole"in (shortly tetra hydro or THC) and the load distribution (b) of the THC fragment. […]
The enzyme activity was determined over the activity of GST P1 enzyme which conjugated GSH and 1-chloro-2,4-dinitrobenzene (CDNB). The test medium was prepared to include 100 mM sodium phosphate buffer (pH 6.5) comprising 1 mM EDTA, 1 mM GSH, 1 mM CDNB and 5% ethanol and the temperature of the medium was determined as 30°C. The formation of a conjugate (GS-DNB) was monitored for 1 minute over the absorbance increase at 340 nm wavelength. The specific activity was calculated using 0.0096 µM^-1 cm ^-1 absorption coefficient. […]

The target in a further test is human-GST P1 (hGST P1) (Homo sapiens, UniProt P09211). The experiment in a line: Spectrophotometric GST P1 enzyme inhibition test (GSH/CDNB conjugation), IC50 determination. As to conditions: spectrophotometric enzyme activity, ctapm1 concentrations between 0-100 µM; GraphPrism calculation; Figure 1. The test is classed as biochemical. As for the experimental part: Pure human-GST P1 (hGST P1) enzyme has been used as target protein in enzyme inhibition tests. "Ethacrynic acid" has been used as the model inhibitor compound. Ctapm1 (compound 1) compound which is a tetrahydrocarbazole derivative has been used as the basic precursor inhibitor for compounds that are designed, synthesized and are planned to be synthesized with advanced modifications.
The enzyme activity was determined over the activity of GST P1 enzyme which conjugated GSH and 1-chloro-2,4-dinitrobenzene (CDNB). The test medium was prepared to include 100 mM sodium phosphate buffer (pH 6.5) comprising 1 mM EDTA, 1 mM GSH, 1 mM CDNB and 5% ethanol and the temperature of the medium was determined as 30°C. The formation of a conjugate (GS-DNB) was monitored for 1 minute over the absorbance increase at 340 nm wavelength. The specific activity was calculated using 0.0096 µM^-1 cm ^-1 absorption coefficient. […] [formula] ΔA: Absorbance change (A340/minute.ml) Vr: Reaction volume (ml) d: Dilution factor ε: Molar absorption coefficient (9,6 mM^-1, cm^-1) ℓ: Light path (0,524 cm for 1 cm microplate measurements for Standard spectrophotometry vessel, Ve: Volume added to the stock enzyme reaction medium (ml) […]
In order to determine IC50 values of compounds both the standard spectrophotometric method and the microplate kinetic reading method was used together. […]

GST P1, sequence (P09211 2-210 limits assumed): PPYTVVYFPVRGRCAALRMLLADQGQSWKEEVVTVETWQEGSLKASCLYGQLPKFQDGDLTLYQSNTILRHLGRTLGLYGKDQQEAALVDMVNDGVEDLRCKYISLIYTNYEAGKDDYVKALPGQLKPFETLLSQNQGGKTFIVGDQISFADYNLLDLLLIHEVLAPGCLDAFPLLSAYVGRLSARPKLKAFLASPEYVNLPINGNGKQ
human-GST P1 (hGST P1), sequence (P09211 2-210 limits assumed): as above

One may read the Ki as a measure of affinity in units of concentration, obtained from inhibition or displacement. As usually defined, the IC50 is the concentration needed to halve the response being measured. With `S=c1[nH]nc(C2CCc3[nH]c4ccccc4c3C2)[nH]1` (stereo not drawn) [Compound 1, 3-(2,3,4,9-tetrahydro-1H-carbazole-3-yl)-1H-1,2,4-triazole-5(4H)-thione], the Ki on GST P1 (competitive type, read-out: Ki inhibition constant against CDNB) was determined as 1.7 µM; at GST P1 (non-competitive type, read-out: Ki inhibition constant against GSH) it was 1.74 µM. Moreover, the IC50 on human-GST P1 (hGST P1) was 1.07 µM.
